Measurements: PMC5609566, “Elucidation of antimicrobial activity and mechanism of action by N-substituted carbazole derivatives” (Bioorganic & Medicinal Chemistry Letters, 2017)
Converted amounts (≈) assume the structure as drawn. Read-outs that look alike come from different tables or passages of the source.

Legend:
[1] = target: T1, Mammalian Ca^2+-ATPase (Oryctolagus cuniculus, UniProt P04191); assay: Colorimetric ATPase assay, rabbit sarcoplasmic reticulum membranes (SERCA); assay type: biochemical
T1 construct: from tissue; host or cells: rabbit hind leg muscle, sarcoplasmic reticulum membranes (gift, Aarhus University)
Description: (§1) To investigate the H^+-ATPase inhibitory effect of the compounds we isolated plasma membranes containing H^+-ATPase from S. cerevisiae and C. albicans cells.[15] Plasma membranes isolated from pig kidney as well as endoplasmic reticulum membranes from rabbit hind leg muscle were used to counter-screen compounds for activity against mammalian Na^+,K^+-ATPase and Ca^2+-ATPase, respectively. Prior to their use, fungal plasma membrane batches were validated by determining the maximum ATP hydrolysis activity, the pH optimum of the ATPase activity, and the sensitivity to inhibition by orthovanadate. ATPase activity was determined by a colorimetric assay that measures the amount of inorganic phosphate liberated over time, as described in Kjellerup et al., 2017.[15] Table 2, Table 3, Table 4 list the IC50 values obtained by measuring the concentration dependence of the ATPase activity for the fifteen carbazole compounds with each of the four membrane preparations.
(§2) Pma1-containing plasma membranes were prepared from S. cerevisiae RS72 yeast cells that had been transformed with the full-length cDNA of the S. cerevisiae plasma membrane H^+-ATPase isoform PMA1 under control of the PMA1 promoter, using the same procedure as described in Kongstad et al., 2014^1. For the preparation of C. albicans membranes, a 100 ml overnight culture grown in YPD (10 g/L yeast extract (BD, Sparks, MD), 20 g/L Bacto peptone (BD), 20 g/L D-(+)-glucose) was transferred to 1 L YPD and grown for a further 7 h at RT with agitation (150 rpm), followed by cell harvesting and subsequent membrane preparation using the same procedure as described in Kongstad et al., 2014^1. […] Rabbit sarcoplasmic reticulum membranes containing Sarco/Endoplasmic Reticulum Ca^2+ ATPase (SERCA) were kindly provided by Dr. Claus E. Olesen and Dr. Jesper V. Møller, Aarhus University and prepared as described in Andersen et al., 1985^2. Pig kidney Na^+,K^+-ATPase was kindly provided by Dr. Natalya Fedosova, Aarhus University and prepared as described in Klodos et al., 2002^3.
(§3) The compound libraries were purchased from Enamine Ltd, Ukraine and Chembridge Corp, USA. ATPase activity was determined by measuring the amount of liberated phosphate from ATP hydrolysis. […] Reactions were initiated by the addition of Na-ATP to a final concentration of 2.5 mM (Pma1 and Na^+,K^+-ATPase) or 5 mM (SERCA), followed by 30 minutes incubation at 30 °C. The amount of liberated phosphate was determined colorimetrically after addition of STOP solution (mixture of L-ascorbic acid, ammonium heptamolybdate tetrahydrate, and HCl to give final concentrations of 65 mM, 2.2 mM, and 189 mM, respectively) with 5 minutes incubation at room temperature (RT) followed by addition of arsenite solution (mixture of NaAsO2, sodium citrate dihydrate, and acetic acid to give final concentrations of 3.1 mM, 28 mM, and 141 mM, respectively). Absorption was measured at 860 nm after an additional 30 minutes incubation at RT.

[2] = target: T2, C. albicans H^+-ATPase (Candida albicans, UniProt P28877); assay: Colorimetric ATPase assay (ATP hydrolysis), C. albicans membranes; assay type: biochemical; conditions: pH 7, n = 3
T2 construct: endogenous in cells; host or cells: C. albicans culture grown in YPD; microsomal membrane preparation
Description: as §1, §2, §3

[3] = target: T3, Mammalian Na^+,K^+-ATPase (Sus scrofa, UniProt P05024); assay: Colorimetric ATPase assay, pig kidney membranes; assay type: biochemical; conditions: for IC50: pH 7, n = 3, read-out: ATP hydrolysis IC50 Mammalian Na^+,K^+-ATPase
T3 construct: from tissue; host or cells: pig kidney plasma membranes (gift, Aarhus University; prepared per Klodos et al., 2002)
Description: as §1, §2, §3

[4] = system: Candida glabrata ATCC 90030; assay: Fungal growth inhibition MIC (MFC); assay type: cell-based; conditions: Nakaseomyces glabratus, ATCC90030, Candida glabrata ATCC 90030 (wild-type); for MIC: RPMI-1640; for MFC: value in brackets
Description: (§4) We subsequently assessed the carbazole series for antifungal activity, as described in Kjellerup et al., 2017.[15] Table 2, Table 3, Table 4, Table 5 list the minimum inhibitory concentrations (MIC) and the minimum fungicidal concentrations (MFC) of the fifteen compounds tested against the yeasts Saccharomyces cerevisiae, Candida albicans, C. krusei, and two isolates of C. glabrata (a wild-type strain ATCC 90030 and a clinical azole-resistant isolate Cg003 with increased efflux pump expression[19]), and the molds Aspergillus fumigatus and A. flavus. MIC was defined as the lowest concentration inhibiting visual growth of the microorganism in RPMI-1640 media. […] However, in several cases antifungal activity against molds was minimal, Table 5.
(§5) Compound hits from the library screening were evaluated against baker yeast S. cerevisiae and C. albicans (ATCC 90028). The minimum inhibitory concentration (MIC) was defined as the lowest concentration inhibiting visual growth of the microorganism and this was determined in triplicate. Standard errors were typically less than 5%. MICs for synthesized compounds were determined on the following fungal isolates: Saccharomyces cerevisiae (ATCC 9763), Candida albicans (SC5314), Candida krusei (ATCC 6258), Candida glabrata (ATCC 90030), Aspergillus flavus (ATCC MYA-1005) and Aspergillus fumigatus (ATCC 13073), which were purchased from American Type Culture Collection, and C. glabrata strain Cg003, which was kindly provided by Julius Subik, Comenius University in Bratislava, Slovak Republic. Cg003 is a clinical isolate, characterized to be resistant to fluconazole and itraconazole due to overexpression of the multidrug resistance efflux pumps Cdr1p and Cdr2p^5. The fungal growth assay was performed as described in Kjellerup et al., 2017^6.

[5] = system: Candida albicans SC5314; assay: Fungal growth inhibition MIC (MFC); assay type: cell-based; conditions: for MIC: Candida albicans SC5314, RPMI-1640; for MFC: Candida albicans SC5314, value in brackets
Description: as §4, §5

[6] = system: Saccharomyces cerevisiae ATCC 9763; assay: Fungal growth inhibition MIC (MFC); assay type: cell-based; conditions: ATCC9763; for MIC: Saccharomyces cerevisiae ATCC 9763, RPMI-1640; for MFC: Saccharomyces cerevisiae ATCC 9763, value in brackets
Description: as §4, §5

[7] = system: Candida glabrata Cg003; assay: Fungal growth inhibition MIC (MFC); assay type: cell-based; conditions: Nakaseomyces glabratus, Candida glabrata Cg003 (clinical azole-resistant isolate); for MIC: RPMI-1640; for MFC: value in brackets
Description: as §4, §5

[8] = system: Candida krusei ATCC 6258; assay: Fungal growth inhibition MIC (MFC); assay type: cell-based; conditions: Pichia kudriavzevii, ATCC6258; for MIC: Candida krusei ATCC 6258, RPMI-1640; for MFC: Candida krusei ATCC 6258, value in brackets
Description: as §4, §5

[9] = pH 7, n = 3, read-out: ATP hydrolysis IC50 Mammalian Ca^2+-ATPase

T1 sequence (P04191 1-994 isoform P04191-2): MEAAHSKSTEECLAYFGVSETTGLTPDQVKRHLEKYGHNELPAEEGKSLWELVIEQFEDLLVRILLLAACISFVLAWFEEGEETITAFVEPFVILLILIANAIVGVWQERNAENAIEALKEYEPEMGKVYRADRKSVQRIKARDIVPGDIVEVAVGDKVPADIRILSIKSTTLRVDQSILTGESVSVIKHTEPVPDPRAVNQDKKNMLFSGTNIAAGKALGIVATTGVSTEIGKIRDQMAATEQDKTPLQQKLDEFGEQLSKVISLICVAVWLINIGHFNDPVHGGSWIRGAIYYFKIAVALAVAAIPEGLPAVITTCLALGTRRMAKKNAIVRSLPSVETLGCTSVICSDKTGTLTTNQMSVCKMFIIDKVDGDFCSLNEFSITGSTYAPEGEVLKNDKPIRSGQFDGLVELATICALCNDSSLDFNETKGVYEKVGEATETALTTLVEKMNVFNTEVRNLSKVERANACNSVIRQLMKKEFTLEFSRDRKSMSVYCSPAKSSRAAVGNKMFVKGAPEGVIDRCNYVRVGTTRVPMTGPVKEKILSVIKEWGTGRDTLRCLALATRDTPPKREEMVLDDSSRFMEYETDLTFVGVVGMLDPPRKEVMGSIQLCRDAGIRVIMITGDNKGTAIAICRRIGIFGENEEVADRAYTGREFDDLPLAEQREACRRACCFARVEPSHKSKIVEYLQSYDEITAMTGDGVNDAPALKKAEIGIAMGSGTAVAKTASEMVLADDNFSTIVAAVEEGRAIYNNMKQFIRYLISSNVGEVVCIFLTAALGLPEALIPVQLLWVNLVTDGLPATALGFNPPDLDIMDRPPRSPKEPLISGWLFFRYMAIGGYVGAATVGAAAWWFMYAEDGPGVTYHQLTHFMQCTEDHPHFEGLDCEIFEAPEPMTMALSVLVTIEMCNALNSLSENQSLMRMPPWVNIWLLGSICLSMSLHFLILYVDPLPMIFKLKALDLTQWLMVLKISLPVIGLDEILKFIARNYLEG
T2 sequence (P28877 whole entry): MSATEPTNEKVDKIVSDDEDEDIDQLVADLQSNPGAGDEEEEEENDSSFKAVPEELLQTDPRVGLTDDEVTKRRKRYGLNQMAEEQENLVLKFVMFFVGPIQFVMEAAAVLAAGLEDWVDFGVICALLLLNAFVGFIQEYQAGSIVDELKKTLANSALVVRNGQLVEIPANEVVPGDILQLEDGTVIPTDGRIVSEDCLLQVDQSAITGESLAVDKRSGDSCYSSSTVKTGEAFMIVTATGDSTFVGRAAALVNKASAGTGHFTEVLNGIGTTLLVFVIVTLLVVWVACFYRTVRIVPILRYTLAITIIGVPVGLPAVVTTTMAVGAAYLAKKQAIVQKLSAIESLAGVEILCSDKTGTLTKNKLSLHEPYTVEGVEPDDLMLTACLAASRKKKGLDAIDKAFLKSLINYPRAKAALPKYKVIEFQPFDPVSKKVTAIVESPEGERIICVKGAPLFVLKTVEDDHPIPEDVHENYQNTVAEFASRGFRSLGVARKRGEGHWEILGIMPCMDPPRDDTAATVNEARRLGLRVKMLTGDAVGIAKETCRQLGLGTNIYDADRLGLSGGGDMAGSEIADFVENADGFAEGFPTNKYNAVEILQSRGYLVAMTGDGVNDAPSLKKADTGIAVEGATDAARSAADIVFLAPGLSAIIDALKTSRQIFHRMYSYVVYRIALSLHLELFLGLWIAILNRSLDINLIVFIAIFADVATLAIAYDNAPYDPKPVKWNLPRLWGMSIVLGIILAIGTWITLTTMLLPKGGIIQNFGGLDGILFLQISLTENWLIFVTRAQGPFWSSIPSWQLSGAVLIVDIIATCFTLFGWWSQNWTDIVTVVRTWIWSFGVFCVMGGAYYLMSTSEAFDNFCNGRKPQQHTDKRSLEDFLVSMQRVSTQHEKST

Structure (SMILES)	IC50 [1]	IC50 [2]	selectivity among the four ATPases ([3]; lower IC50 value on Na^+,K^+-ATPase)	IC50 [3]	MIC [4]	MFC [4]	MIC [5]	MFC [5]	MIC [6]	MFC [6]	MIC [7]	MFC [7]	MIC [8]	MFC [8]	IC50 [1, 9]	potency on the Ca^2+-ATPase versus the three other pumps [1]
O=C(O)C1CCN(CC(O)Cn2c3ccc(Cl)cc3c3cc(Cl)ccc32)CC1 (stereo not shown) [Compound 9, 1-(3-(3,6-dichloro-9H-carbazol-9-yl)-2-hydroxypropyl)piperidine-4-carboxylic acid]	97.6 ± 25.7 µM	105 ± 13.9 µM	pronounced selectivity towards Na^+,K^+-ATPase	4 ± 0.7 µM	> 75 µM	> 75 µM	> 75 µM	> 75 µM	> 75 µM	> 75 µM	> 75 µM	> 75 µM	> 75 µM	> 75 µM		
OC(Cn1ccnc1)Cn1c2ccc(Cl)cc2c2cc(Cl)ccc21 (stereo not shown) [Compound 5, 1-(3,6-dichloro-9H-carbazol-9-yl)-3-(1H-imidazol-1-yl)propan-2-ol]	10.7 ± 2.2 µM	19.3 ± 2.6 µM		20.4 ± 2.3 µM	> 75 µM	> 75 µM	24 µM (≈ 8.65 µg/mL)	> 75 µM	24 µM (≈ 8.65 µg/mL)	75 µM (≈ 27 µg/mL)	> 75 µM	> 75 µM	> 75 µM	> 75 µM		
CN(C)CCCn1c2ccc(Cl)cc2c2cc(Cl)ccc21 [Compound 14, 3-(3,6-dichloro-9H-carbazol-9-yl)-N,N-dimethyl-propan-1-amine]	13 ± 2.1 µM	23.3 ± 5.3 µM		2.1 ± 0.5 µM	24 µM (≈ 7.71 µg/mL)	24 µM (≈ 7.71 µg/mL)	24 µM (≈ 7.71 µg/mL)	75 µM (≈ 24.1 µg/mL)	5.8 µM (≈ 1.86 µg/mL)	16 µM (≈ 5.14 µg/mL)	24 µM (≈ 7.71 µg/mL)	75 µM (≈ 24.1 µg/mL)	13 µM (≈ 4.18 µg/mL)	24 µM (≈ 7.71 µg/mL)		
CCC(C)NCC(O)Cn1c2ccc(Cl)cc2c2cc(Cl)ccc21 (stereo not shown) [Compound 10, 1-(sec-butylamino)-3-(3,6-dichloro-9H-carbazol-9-yl)propan-2-ol]		1.1 ± 0.2 µM		1 ± 0.2 µM	1.2 µM (≈ 0.438 µg/mL)	3.8 µM (≈ 1.39 µg/mL)	3.7 µM (≈ 1.35 µg/mL)	3.8 µM (≈ 1.39 µg/mL)	0.4 µM (≈ 0.146 µg/mL)	1.2 µM (≈ 0.438 µg/mL)	5.6 µM (≈ 2.05 µg/mL)	7.9 µM (≈ 2.89 µg/mL)	2.9 µM (≈ 1.06 µg/mL)	3.8 µM (≈ 1.39 µg/mL)	0.3 ± 0.1 µM	
CN(C)CCCCn1c2ccc(Cl)cc2c2cc(Cl)ccc21 [Compound 15]	17.5 ± 11.4 µM	31.1 ± 4.8 µM		5.1 ± 0.8 µM	7.5 µM (≈ 2.51 µg/mL)	7.5 µM (≈ 2.51 µg/mL)	24 µM (≈ 8.05 µg/mL)	24 µM (≈ 8.05 µg/mL)	2.4 µM (≈ 0.805 µg/mL)	5 µM (≈ 1.68 µg/mL)	7.5 µM (≈ 2.51 µg/mL)	24 µM (≈ 8.05 µg/mL)	7.5 µM (≈ 2.51 µg/mL)	16 µM (≈ 5.36 µg/mL)		
Clc1ccc2c(c1)c1cc(Cl)ccc1n2CCCN1CCOCC1 [Compound 18, 4-(3-(3,6-dichloro-9H-carbazol-9-yl)propyl)morpholine]	70.9 ± 8.4 µM	5.9 ± 1.7 µM		7.7 ± 3.1 µM	> 75 µM	> 75 µM	> 75 µM	> 75 µM	> 75 µM	> 75 µM	> 75 µM	> 75 µM	> 75 µM	> 75 µM		much less potent on the Ca^2+-ATPase than the three other pumps
CN1CCN(CC(O)Cn2c3ccc(Cl)cc3c3cc(Cl)ccc32)CC1 (stereo not shown) [Compound 8, 1-(3,6-dichloro-9H-carbazol-9-yl)-3-(4-methylpiperazin-1-yl)propan-2-ol]	36.8 ± 12.2 µM	26.4 ± 2.5 µM		9.7 ± 3.3 µM	42 µM (≈ 16.5 µg/mL)	75 µM (≈ 29.4 µg/mL)	68 µM (≈ 26.7 µg/mL)	75 µM (≈ 29.4 µg/mL)	7.5 µM (≈ 2.94 µg/mL)	7.5 µM (≈ 2.94 µg/mL)	58 µM (≈ 22.8 µg/mL)	75 µM (≈ 29.4 µg/mL)	75 µM (≈ 29.4 µg/mL)	> 75 µM		
CN1CCN(CC(O)Cn2c3ccc(O)cc3c3cc(O)ccc32)CC1 (stereo not shown) [Compound 13, 9-(2-hydroxy-3-(4-methylpiperazin-1-yl)propyl)-9H-carbazole-3,6-diol]	> 167 µM	> 167 µM		> 167 µM	> 75 µM	> 75 µM	> 75 µM	> 75 µM	> 75 µM	> 75 µM	> 75 µM	> 75 µM	> 75 µM	> 75 µM		
OC(CN1CCOCC1)Cn1c2ccc(Cl)cc2c2cc(Cl)ccc21 (stereo not shown) [Compound 7, 1-(3,6-dichloro-9H-carbazol-9-yl)-3-morpholinopropan-2-ol]		2.6 ± 0.4 µM		6 ± 1.3 µM	> 75 µM	> 75 µM	75 µM (≈ 28.4 µg/mL)	75 µM (≈ 28.4 µg/mL)	24 µM (≈ 9.1 µg/mL)	24 µM (≈ 9.1 µg/mL)	> 75 µM	> 75 µM	> 75 µM	> 75 µM	19.6 ± 7.2 µM	
OC(Cn1cncn1)Cn1c2ccc(Cl)cc2c2cc(Cl)ccc21 (stereo not shown) [Compound 6, 1-(3,6-dichloro-9H-carbazol-9-yl)-3-(1H-1,2,4-triazol-1-yl)propan-2-ol]	20.3 ± 3.6 µM	4 ± 1.2 µM		5.2 ± 0.3 µM	> 75 µM	> 75 µM	75 µM (≈ 27.1 µg/mL)	> 75 µM	75 µM (≈ 27.1 µg/mL)	> 75 µM	> 75 µM	> 75 µM	> 75 µM	> 75 µM		
COc1ccc2c(c1)c1cc(OC)ccc1n2CC(O)CN1CCN(C)CC1 (stereo not shown) [Compound 11, 1-(3,6-dimethoxy-9H-carbazol-9-yl)-3-(4-methylpiperazin-1-yl)propan-2-ol]	> 167 µM	> 167 µM		> 167 µM	> 75 µM	> 75 µM	> 75 µM	> 75 µM	> 75 µM	> 75 µM	> 75 µM	> 75 µM	> 75 µM	> 75 µM		
